Reference: patent US20230287048A1, “COMPOSITION AND KIT FOR REMOVING LIPOPOLYSACCHARIDE” (HLB SCIENCE INC., priority 2020, published 2023)
Where a SMILES comes first, the peptide text is derived from it. Where no end group is shown, it is not given here. [ ]: non-standard residue; d: D form.

Assays:
[1] = Binding affinity (Kd) between peptide and LPS by isothermal titration calorimeter (ITC); details: for Kd: 0.2 mM peptide in cell, 2 mM LPS in syringe, PBS, read-out: Kd (calculated by ITC)
Experimental: FP1 is denoted as wild type (WT), and peptides having point mutations for various parts in WT were prepared (FP3, FP5, FP6, and FP9). To increase the interaction with LPS in the residue sequence of FP3, peptides were designed based on an FP3 and LPS-binding model (FP12-NH2 and FP13-NH2), and non-natural amino acid and amino acid isomers (allomeric D-type amino acids) were additionally introduced, thereby designing peptides (allD FP12-NH2, allD FP13-NH2, allD FP-13-9a, allD FP-13-9w, allD FP-13-9k, and allD FP13-NH2 (AcOH)). In addition, an N-terminal PEGylated peptide (PEG-allD FP13-NH2(AcOH)) was additionally designed and synthesized by Anygen Co. Ltd., and then supplied. Using each of the provided peptides, lipopolysaccharide (LPS), and an isothermal titration calorimeter (ITC) for measuring binding affinity (Kd), binding affinity with LPS was confirmed.
Specifically, a method of analyzing binding affinity (Kd) between a peptide and LPS is as follows.
The binding affinity was measured using Malvern MicroCal PEAQ-ITC cell equipment, and to confirm the interaction with LPS, pre-treatment was performed as follows. The volume and shape of a cell sample were 300 μL, coin-shaped, and fixed-in-place; and the syringe rotation rate was 1,200 rpm; and temperatures were 30° C., 35° C., and 25° C.
Before the test, LPS and the peptide were diluted with PBS in advance, thereby obtaining 2 mM LPS and a 0.2 mM peptide. 300 μL of the peptide was put into cells in an ITC device, which had been washed, and 40 μL of LPS was contained in a syringe. Measurement conditions for ITC (temperature, the number of injections) were set, the syringe was inserted into the cell, and the ITC measurement began. When the measurement was completed, the Kd values of LPS and the peptide were calculated through analysis.

[2] = LPS removal rates of reagents prepared with various peptides; details: for Removal Rate: peptide conjugated to CNBr-activated agarose
Experimental: To confirm an LPS removal rate by preparing a reagent for removing LPS using peptides other than FP12-NH2, LPS removal rates were compared using the peptides listed in Table 11.
Reagents for removing LPS were prepared in one dose by the method of Example 2-2 for each peptide.
More specifically, the reagent for removing LPS was aliquoted by Lot at 2 mL into 5 mL tubes. After centrifugation, the supernatant was removed with a syringe, 2 mL of PBS was added and mixed up and down and centrifuged. […] The mixture was stirred for 2 hours at room temperature. After centrifugation, the supernatant was transferred to a new tube.

Row | LPS binding affinity compared with FP1 (wild type, WT) [1] | Kd [1] [µM] | Compound | Removal Rate ([2]; feeding LPS 100,000 EU/ml) [%] | Removal Rate ([2]; feeding LPS 10,000 EU/ml) [%] | LPS removal rate, comparison of all polypeptides ([2]; peptides of Table 11 conjugated to CNBr-activated agarose)
1 | the same as or higher than FP1 | 26.6 | CC(C)C[C@@H](NC(=O)[C@H](N)CCCNC(=N)N)C(=O)N[C@H](CCCNC(=N)N)C(=O)N[C@@H](C(=O)N[C@H](CCCCN)C(=O)N[C@H](CC(C)C)C(=O)N[C@H](CCCNC(=N)N)C(=O)N[C@H](CCCNC(=N)N)C(=O)N[C@H](Cc1ccc(O)cc1)C(=O)N[C@H](CC(C)C)C(=O)N[C@H](CCCNC(=N)N)C(N)=O)C(C)C [allD FP12-NH2, RLRVKLRRYLR-NH2] (H-[dR][dL][dR][dV][dK][dL][dR][dR][dY][dL][dR]-NH2; N-terminus assumed) | 58.6 | – | –
2 | the same as or higher than FP1 | 4.78 | CC(C)C[C@@H](NC(=O)[C@H](N)CCCCN)C(=O)N[C@H](CCCNC(=N)N)C(=O)N[C@@H](C(=O)N[C@H](CCCCN)C(=O)N[C@H](CC(C)C)C(=O)N[C@H](CCCNC(=N)N)C(=O)N[C@H](CCCNC(=N)N)C(=O)N[C@H](Cc1ccc(O)cc1)C(=O)N[C@H](CC(C)C)C(=O)N[C@H](CCCNC(=N)N)C(N)=O)C(C)C [allD FP13-NH2, KLRVKLRRYLR-NH2] (H-[dK][dL][dR][dV][dK][dL][dR][dR][dY][dL][dR]-NH2; N-terminus assumed) | 57.7 | – | –
3 | the same as or higher than FP1 | 1.99 | CC(C)C[C@@H](NC(=O)[C@H](N)CCCCN)C(=O)N[C@H](CCCNC(=N)N)C(=O)N[C@@H](C(=O)N[C@H](CCCCN)C(=O)N[C@H](CC(C)C)C(=O)N[C@H](CCCNC(=N)N)C(=O)N[C@H](CCCNC(=N)N)C(=O)N[C@H](CCCCN)C(=O)N[C@H](CC(C)C)C(=O)N[C@H](CCCNC(=N)N)C(N)=O)C(C)C [allD-FP-13-9k-NH2, Klrvklrrklr-NH2] (H-[dK][dL][dR][dV][dK][dL][dR][dR][dK][dL][dR]-NH2; N-terminus assumed) | – | – | –
4 | the same as or higher than FP1 | 17.4 | CC(C)C[C@@H](NC(=O)[C@H](N)CCCCN)C(=O)N[C@H](CCCNC(=N)N)C(=O)N[C@@H](C(=O)N[C@H](CCCCN)C(=O)N[C@H](CC(C)C)C(=O)N[C@H](CCCNC(=N)N)C(=O)N[C@H](CCCNC(=N)N)C(=O)N[C@H](Cc1c[nH]c2ccccc12)C(=O)N[C@H](CC(C)C)C(=O)N[C@H](CCCNC(=N)N)C(N)=O)C(C)C [allD-FP-13-9w-NH2, Klrvklrrwlr-NH2] (H-[dK][dL][dR][dV][dK][dL][dR][dR][dW][dL][dR]-NH2; N-terminus assumed) | – | – | –
5 | the same as or higher than FP1 | 19.5 | CC(C)C[C@@H](NC(=O)[C@H](N)CCCCN)C(=O)N[C@H](CCCNC(=N)N)C(=O)N[C@@H](C(=O)N[C@H](CCCCN)C(=O)N[C@H](CC(C)C)C(=O)N[C@H](CCCNC(=N)N)C(=O)N[C@H](CCCNC(=N)N)C(=O)N[C@H](Cc1ccc(O)cc1)C(=O)N[C@H](CC(C)C)C(=O)N[C@H](CCCNC(=N)N)C(N)=O)C(C)C [allD-FP-13-NH2 (AcOH), KLRVKLRRYLR-NH2] (H-[dK][dL][dR][dV][dK][dL][dR][dR][dY][dL][dR]-NH2; N-terminus assumed) | – | – | –
6 | the same as or higher than FP1 | 118 | KLRVKLRRYLR-NH2 [FP13-NH2, KLRVKLRRYLR-NH2] | – | 94.8 | –
7 | the same as or higher than FP1 | 11.1 | LRLGVELKRYLR [FP6, LRLGVELKRYLR] | – | – | –
8 | the same as or higher than FP1 | 0.242 | RLRVKLRRYLR-NH2 [FP12-NH2, RLRVKLRRYLR-NH2] | 79.4 | 99.9 | the highest removal rate

Row | Compound | LPS binding affinity compared with FP1 (wild type, WT) [1] | Kd [1] [µM] | Removal Rate ([2]; feeding LPS 100,000 EU/ml) [%] | Removal Rate ([2]; feeding LPS 10,000 EU/ml) [%] | LPS removal rate, comparison of all polypeptides ([2]; peptides of Table 11 conjugated to CNBr-activated agarose)
9 | KLGVEAKRYLD [FP1(WT), KLGVEAKRYLD, reference compound] | – | 238 | – | – | –
10 | KLGVEAKRYLR [FP3, KLGVEAKRYLR] | the same as or higher than FP1 | 332 | – | – | –
11 | KLGVEALRYLD [FP9, KLGVEALRYLD] | the same as or higher than FP1 | 326 | – | – | –
12 | LRLGVEAKRYLR [FP5, LRLGVEAKRYLR] | the same as or higher than FP1 | 854 | – | – | –
